Experimental data: patent US7371888B2, “α-(Trifluoromethyl-substituted aryloxy, arylamino, arylthio or arylmethyl)-trifluoromethyl-substituted phenylacetic acids and derivatives as antidiabetic agents” (Metabolex, Inc., priority 2004, dated 2008)

Tested on: C57BL/6J ob/ob mice
Assay: Anti-diabetic activity in the C57BL/6j ob/ob mice model (plasma glucose lowering, insulin level)
Assay type: in vivo
Settings: male C57BL/6J ob/ob mice, orally by gavage once a day for 1-4 days; for Insulin Level compared with vehicle: drug-treated vs vehicle-treated; for minimal effective dose: Mus musculus, po, glucose lowering, plasma glucose 6 hours after each dose, read-out: Potency
Procedure: The anti-diabetic activities of the compounds were evaluated in the C57BL/6j ob/ob Mice model. Male, 7-9 weeks old, C57BL/6J ob/ob mice were purchased from The Jackson Laboratory (Bar Harbor, Me., USA). Animals were housed (4-5 mice/cage) under standard laboratory conditions at 22±3° C. temperature and 50±20% relative humidity, and were maintained on a diet of Purina rodent chow and water ad libitum. Prior to treatment, blood was collected from the tail vein of each animal. Mice that had non-fasting plasma glucose levels between 250 and 500 mg/dl were used. Each treatment group consisted of 8-10 mice that were distributed so that the mean glucose levels were equivalent in each group at the start of the study. Mice were dosed orally by gavage once a day for 1-4 days with vehicle and one or more dose of test compound at a dose ranging from 5 to 125 mg/kg. Compounds were delivered in a liquid formulation containing 5% (v/v) dimethyl sulfoxide (DMSO), 1% (v/v) Tween 80® and 0.9% (w/v) methylcellulose. The gavage volume was 10 ml/kg. Blood samples were taken at 6 hours after the each dose and analyzed for plasma glucose. Food intake and body weight were measured daily. Plasma glucose concentrations were determined calorimetrically using a commercial glucose oxidase method (Sigma Chemical Co, St. Louis, Mo., USA). Significant difference between groups (comparing drug-treated to vehicle-treated) was evaluated using the Student unpaired t-test. Table 1 provides the relative potency of some selected compounds of the invention.

SMILES | Insulin Level compared with vehicle | minimal effective dose
O=C(O)C(Oc1ccc(C(F)(F)F)cc1)c1cccc(C(F)(F)F)c1 (single isomer, unassigned; (+)) [(+)-39, (4-trifluoromethyl-phenoxy)-(3-trifluoromethyl-phenyl)-acetic acid] | Lower | 
O=C(O)C(Oc1ccc(C(F)(F)F)cc1)c1cccc(C(F)(F)F)c1 (single isomer, unassigned; (-)) [(−)-39, (4-trifluoromethyl-phenoxy)-(3-trifluoromethyl-phenyl)-acetic acid] | Lower | 
O=C(O)C(Oc1ccc(C(F)(F)F)cc1)c1cccc(C(F)(F)F)c1 (centres unmarked) [Compound 39, (4-Trifluoromethyl-phenoxy)-(3-trifluoromethyl-phenyl)-acetic acid] | Lower | 
O=C(O)C(Oc1cc(C(F)(F)F)cc(C(F)(F)F)c1)c1ccc(C(F)(F)F)cc1 (centres unmarked) [Compound 81] | Lower | ≤ 125 mg/kg
O=C(O)C(Oc1ccc(C(F)(F)F)cc1)c1ccc(C(F)(F)F)cc1 (centres unmarked) [Compound 83, (4-Trifluoromethyl-phenoxy)-(4-trifluoromethyl-phenyl)-acetic acid] | Lower | ≤ 125 mg/kg
O=C(O)C(Oc1ccc(C(F)(F)F)cc1Cl)c1cccc(C(F)(F)F)c1 (centres unmarked) [Compound 85, (2-Chloro-4-trifluoromethyl-phenoxy)-(3-trifluoromethyl-phenyl)-acetic acid] | Lower | ≤ 125 mg/kg
O=C(O)C(Oc1cccc(C(F)(F)F)c1)c1ccc(C(F)(F)F)cc1 (centres unmarked) [Compound 86, (3-trifluoromethyl-phenoxy)-(4-trifluoromethyl-phenyl)-acetic acid] | Lower | ≤ 125 mg/kg
O=C(O)C(Oc1ccc(C(F)(F)F)cc1Cl)c1ccc(C(F)(F)F)cc1 (centres unmarked) [Compound 89, (2-Chloro-4-trifluoromethyl-phenoxy)-(4-trifluoromethyl-phenyl)-acetic acid] | Lower | ≤ 125 mg/kg
O=C(O)C(Oc1ccc(C(F)(F)F)cn1)c1cccc(C(F)(F)F)c1 (centres unmarked) [Compound 100, (3-trifluoromethyl-phenyl)-(5-trifluoromethyl-pyridin-2-yloxy)-acetic acid] | Lower | ≤ 125 mg/kg
CC(Oc1ccc(C(F)(F)F)cc1)(C(=O)O)c1cccc(C(F)(F)F)c1 (centres unmarked) [Compound 120, 2-(4-trifluoromethyl-phenoxy)-2-(3-trifluoromethyl-phenyl)-propionic acid] | Lower | ≤ 125 mg/kg
CC(Oc1ccc(C(F)(F)F)cc1)(C(=O)O)c1ccc(C(F)(F)F)cc1 (centres unmarked) [Compound 121, 2-(4-Trifluoromethyl-phenoxy)-2-(4-trifluoromethyl-phenyl)-propionic acid] | Lower | ≤ 125 mg/kg
OCC(Oc1ccc(C(F)(F)F)cc1Cl)c1ccc(C(F)(F)F)cc1 (centres unmarked) [Compound 128] | Lower | ≤ 125 mg/kg
CC(=O)NCCOC(=O)C(Oc1ccc(C(F)(F)F)cc1)c1cccc(C(F)(F)F)c1 (centres unmarked) [Compound 136, (4-trifluoromethyl-phenoxy)-(3-trifluoromethyl-phenyl)-acetic acid 2-acetylamino-ethyl ester] | Lower | ≤ 125 mg/kg
CC(=O)NCCOC(=O)C(Oc1cccc(C(F)(F)F)c1)c1ccc(C(F)(F)F)cc1 (centres unmarked) [Compound 142] | Lower | ≤ 125 mg/kg
CC(=O)NCCOC(=O)C(Oc1cc(C(F)(F)F)cc(C(F)(F)F)c1)c1ccc(C(F)(F)F)cc1 (centres unmarked) [Compound 143] | Lower | ≤ 125 mg/kg
CC(=O)NCCOC(=O)C(Oc1cccc(C(F)(F)F)c1)c1cccc(C(F)(F)F)c1 (centres unmarked) [Compound 144] | Lower | ≤ 125 mg/kg
CC(=O)NCCOC(=O)C(Oc1ccc(C(F)(F)F)cc1)c1ccc(C(F)(F)F)cc1 (centres unmarked) [Compound 145] | Lower | ≤ 125 mg/kg
CC(=O)NCCOC(=O)C(Oc1ccccc1C(F)(F)F)c1ccc(C(F)(F)F)cc1 (centres unmarked) [Compound 146] | Lower | > 125 mg/kg
CC(=O)NCCOC(=O)C(Oc1cccc(C(F)(F)F)c1)c1ccccc1C(F)(F)F (centres unmarked) [Compound 147] | Lower | > 125 mg/kg
